Data published in ChEMBL document CHEMBL3785058, “Design and synthesis of novel 3-sulfonylpyrazol-4-amino pyrimidines as potent anaplastic lymphoma kinase (ALK) inhibitors” (Bioorg Med Chem Lett, 2016).

How the values were obtained:
[1] = target: ALK tyrosine kinase receptor (Homo sapiens, UniProt Q9UM73); assay: Inhibition of recombinant human wild type ALK using tyrosine kinase substrate-biotin after 30 mins by HTRF assay
[2] = target: ALK tyrosine kinase receptor (Homo sapiens, UniProt Q9UM73, L1196M); assay: Inhibition of recombinant human ALK L1196M mutant using tyrosine kinase substrate-biotin after 30 mins by HTRF assay
Sequence of ALK tyrosine kinase receptor (Homo sapiens, UniProt Q9UM73, L1196M) (Q9UM73 19-1620 L1196M limits assumed): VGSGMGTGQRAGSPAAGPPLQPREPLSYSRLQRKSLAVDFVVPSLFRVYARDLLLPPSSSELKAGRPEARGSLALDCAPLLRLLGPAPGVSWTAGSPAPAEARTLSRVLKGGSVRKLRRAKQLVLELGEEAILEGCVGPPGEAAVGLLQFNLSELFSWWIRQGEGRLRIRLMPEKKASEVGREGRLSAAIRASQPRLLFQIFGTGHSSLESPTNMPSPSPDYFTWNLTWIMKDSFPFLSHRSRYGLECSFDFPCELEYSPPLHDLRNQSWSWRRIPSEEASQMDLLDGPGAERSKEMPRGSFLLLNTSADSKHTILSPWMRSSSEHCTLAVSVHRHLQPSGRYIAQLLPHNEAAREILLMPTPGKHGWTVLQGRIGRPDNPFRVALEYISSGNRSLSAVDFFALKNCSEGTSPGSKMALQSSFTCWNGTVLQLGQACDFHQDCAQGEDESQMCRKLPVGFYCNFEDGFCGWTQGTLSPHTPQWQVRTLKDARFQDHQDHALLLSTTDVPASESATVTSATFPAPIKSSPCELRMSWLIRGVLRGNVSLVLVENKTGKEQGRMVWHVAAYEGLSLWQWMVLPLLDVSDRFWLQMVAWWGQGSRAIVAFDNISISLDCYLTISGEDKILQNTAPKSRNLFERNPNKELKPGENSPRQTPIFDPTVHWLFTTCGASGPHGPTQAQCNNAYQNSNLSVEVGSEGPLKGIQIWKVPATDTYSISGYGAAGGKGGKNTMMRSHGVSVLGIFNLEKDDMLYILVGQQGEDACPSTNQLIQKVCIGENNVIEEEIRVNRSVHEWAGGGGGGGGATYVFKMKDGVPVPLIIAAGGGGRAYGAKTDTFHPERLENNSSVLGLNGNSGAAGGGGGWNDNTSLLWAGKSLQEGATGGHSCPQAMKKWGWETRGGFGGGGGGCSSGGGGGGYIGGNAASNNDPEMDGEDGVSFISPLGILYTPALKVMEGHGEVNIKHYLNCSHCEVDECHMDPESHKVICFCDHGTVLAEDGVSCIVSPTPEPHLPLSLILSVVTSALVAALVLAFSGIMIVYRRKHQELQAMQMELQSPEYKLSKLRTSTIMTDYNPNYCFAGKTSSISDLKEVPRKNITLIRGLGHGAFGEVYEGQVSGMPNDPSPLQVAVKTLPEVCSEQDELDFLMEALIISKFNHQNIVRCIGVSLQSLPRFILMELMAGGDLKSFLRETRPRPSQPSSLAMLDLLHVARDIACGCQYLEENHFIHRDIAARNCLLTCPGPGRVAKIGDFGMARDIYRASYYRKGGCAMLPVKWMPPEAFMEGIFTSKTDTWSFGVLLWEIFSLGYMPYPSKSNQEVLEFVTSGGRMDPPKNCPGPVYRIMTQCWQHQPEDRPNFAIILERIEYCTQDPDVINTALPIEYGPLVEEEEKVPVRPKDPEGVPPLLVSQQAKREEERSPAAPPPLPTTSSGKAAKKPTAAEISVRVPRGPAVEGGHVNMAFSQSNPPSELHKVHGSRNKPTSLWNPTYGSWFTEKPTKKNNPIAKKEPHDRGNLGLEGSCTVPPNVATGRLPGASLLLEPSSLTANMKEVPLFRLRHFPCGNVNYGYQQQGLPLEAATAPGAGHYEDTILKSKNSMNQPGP

NCI-H2228 = assay: Antiproliferative activity against human NCI-H2228 cells after 96 hrs by CellTiter-Glo assay; assay type: functional, cell-based; details: NCI-H2228, 96 h
[3] = Antiproliferative activity against human KARPAS299 cells after 96 hrs by CellTiter-Glo assay; assay type: functional, cell-based; details: KARPAS-299, 96 h
[4] = Ratio of IC50 for human ERG to IC50 for human NCI-H2228 cells

Sequence of ALK tyrosine kinase receptor (Homo sapiens, UniProt Q9UM73) (Q9UM73 whole entry): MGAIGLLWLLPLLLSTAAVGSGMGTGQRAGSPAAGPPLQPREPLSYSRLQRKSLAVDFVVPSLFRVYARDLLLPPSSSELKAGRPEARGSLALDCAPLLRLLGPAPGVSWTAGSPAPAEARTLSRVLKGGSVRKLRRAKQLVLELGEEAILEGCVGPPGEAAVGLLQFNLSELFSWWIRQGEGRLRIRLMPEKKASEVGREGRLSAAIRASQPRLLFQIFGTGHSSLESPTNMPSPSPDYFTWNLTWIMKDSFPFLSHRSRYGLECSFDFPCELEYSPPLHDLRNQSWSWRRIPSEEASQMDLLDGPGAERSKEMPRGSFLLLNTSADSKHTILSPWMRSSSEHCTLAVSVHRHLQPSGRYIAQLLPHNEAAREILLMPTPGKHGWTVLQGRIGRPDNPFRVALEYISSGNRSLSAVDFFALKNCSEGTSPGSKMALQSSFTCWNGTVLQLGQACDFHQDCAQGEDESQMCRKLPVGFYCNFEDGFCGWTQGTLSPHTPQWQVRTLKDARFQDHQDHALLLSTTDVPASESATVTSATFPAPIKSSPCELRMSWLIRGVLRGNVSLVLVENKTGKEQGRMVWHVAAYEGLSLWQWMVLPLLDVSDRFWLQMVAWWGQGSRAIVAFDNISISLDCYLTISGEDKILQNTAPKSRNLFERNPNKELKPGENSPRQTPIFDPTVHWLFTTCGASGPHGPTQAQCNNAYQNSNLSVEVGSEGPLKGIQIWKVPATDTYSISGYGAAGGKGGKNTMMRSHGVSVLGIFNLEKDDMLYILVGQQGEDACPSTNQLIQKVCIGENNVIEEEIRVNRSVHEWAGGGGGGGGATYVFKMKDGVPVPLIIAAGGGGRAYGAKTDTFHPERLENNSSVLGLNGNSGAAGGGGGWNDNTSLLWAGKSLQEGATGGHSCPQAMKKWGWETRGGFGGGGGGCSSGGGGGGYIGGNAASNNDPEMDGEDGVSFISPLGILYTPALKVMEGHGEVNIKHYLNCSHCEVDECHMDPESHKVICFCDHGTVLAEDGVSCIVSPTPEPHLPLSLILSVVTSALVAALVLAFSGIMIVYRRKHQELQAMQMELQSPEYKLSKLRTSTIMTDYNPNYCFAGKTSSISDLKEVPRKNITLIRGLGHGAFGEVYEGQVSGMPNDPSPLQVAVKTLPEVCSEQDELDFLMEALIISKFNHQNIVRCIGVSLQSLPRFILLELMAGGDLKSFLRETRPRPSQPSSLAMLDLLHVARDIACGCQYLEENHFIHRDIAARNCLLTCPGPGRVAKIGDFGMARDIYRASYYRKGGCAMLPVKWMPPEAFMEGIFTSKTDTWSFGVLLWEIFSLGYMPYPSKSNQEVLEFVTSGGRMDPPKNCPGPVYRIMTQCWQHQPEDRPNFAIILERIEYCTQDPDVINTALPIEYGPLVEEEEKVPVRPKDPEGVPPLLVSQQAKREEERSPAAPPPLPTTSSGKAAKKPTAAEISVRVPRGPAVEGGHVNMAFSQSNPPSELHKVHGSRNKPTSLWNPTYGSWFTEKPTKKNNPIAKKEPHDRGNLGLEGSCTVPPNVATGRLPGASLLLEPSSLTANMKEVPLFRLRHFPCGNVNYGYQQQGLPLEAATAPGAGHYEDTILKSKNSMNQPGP

Structure (SMILES)	IC50 [1] [nM]	IC50 [2] [nM]	IC50 (NCI-H2228) [nM]	IC50 [3] [nM]	Ratio IC50 [4]
Cc1cc(Nc2ncc(Cl)c(Nc3cn(C)nc3S(=O)(=O)C(C)C(C)C)n2)c(OC(C)C)cc1C1CCNCC1 (stereo not drawn)	753	3900	> 10000	> 10000	
Cc1cc(Nc2ncc(Cl)c(Nc3cn(C)nc3S(=O)(=O)C(C)C)n2)c(OC2CC2)cc1C1CCN(C)CC1	1		39		
Cc1cc(Nc2ncc(Cl)c(Nc3cn(C)nc3S(=O)(=O)C(C)C)n2)c(OC2CC2)cc1[C@H]1CC[C@H](NS(C)(=O)=O)CC1	16	20	151	18	
Cc1cc(Nc2ncc(Cl)c(Nc3cn(C)nc3S(=O)(=O)CC(C)C)n2)c(OC(C)C)cc1C1CCNCC1			193	24	
Cc1cc(Nc2ncc(Cl)c(Nc3cn(C)nc3S(=O)(=O)C(C)C)n2)c(OC(C)C)cc1C1CCNCC1			198	16	
CCC(C)S(=O)(=O)c1nn(C)cc1Nc1nc(Nc2cc(C)c(C3CCNCC3)cc2OC(C)C)ncc1Cl (stereo not drawn)			224	21	
CCn1cc(Nc2nc(Nc3cc(C)c(C4CCNCC4)cc3OC(C)C)ncc2Cl)c(S(=O)(=O)C(C)C)n1	20	28	764	68	
Cc1cc(Nc2ncc(Cl)c(Nc3cn(C)nc3C#N)n2)c(OC2CC2)cc1C1CCN(C)CC1			272		
Cc1nc(S(=O)(=O)C(C)C)c(Nc2nc(Nc3cc(C)c(C4CCN(C)CC4)cc3OC3CC3)ncc2Cl)s1			150		
Cc1cc(Nc2ncc(Cl)c(Nc3cn(C4CC4)nc3S(=O)(=O)C(C)C)n2)c(OC(C)C)cc1C1CCNCC1			248	37	
Cc1cc(Nc2ncc(Cl)c(Nc3cn(C)nc3S(=O)(=O)N(C)C)n2)c(OC(C)C)cc1C1CCNCC1	6680	> 10000			
Cc1nc(Nc2nc(Nc3cc(C)c(C4CCN(C)CC4)cc3OC3CC3)ncc2Cl)c(S(=O)(=O)C(C)C)s1	3	19	490		
Cc1cc(Nc2ncc(C)c(Nc3cn(C)nc3S(=O)(=O)C(C)C)n2)c(OC2CC2)cc1C1CCN(C)CC1			69		
COc1ccc(Cn2cc(Nc3nc(Nc4cc(C)c(C5CCNCC5)cc4OC(C)C)ncc3Cl)c(S(=O)(=O)C(C)C)n2)cc1	129	157		> 624	
CNC(=O)c1nn(C)cc1Nc1nc(Nc2cc(C)c(C3CCN(C)CC3)cc2OC2CC2)ncc1Cl	12	24	661		
Cc1cc(Nc2ncc(Cl)c(Nc3cn(C)nc3S(=O)(=O)C(C)C)n2)c(OC2CC2)cc1C1CCOCC1			174	18	21
Cc1cc(Nc2ncc(Cl)c(Nc3cn(C)nc3S(=O)(=O)C3CC3)n2)c(OC(C)C)cc1C1CCNCC1	400	> 10000	> 10000	> 10000	
